Results on 5 compounds are retold here after ChEMBL document CHEMBL1201862, “PubChem BioAssay data set” (2004).

Activity calls are given as the source filed them.

One experiment concerns the target Orexin receptor type 2 (Homo sapiens, UniProt O43614). Briefly: Counterscreen assay for antagonists of the orexin 1 receptor (OX1R; HCRTR1): Homogeneous Time Resolved Fluorescence (HTRF)-based cell-based dose response assay for antagonists of the orexin 2 receptor (OX2R; HCRTR2), run by assay provider. The experiment is classed as functional.
Another experiment addresses Beta Lactamase (Pseudomonas aeruginosa, UniProt Q932Y6). Briefly: BLA reporter interference, concentration series – BLA reporter cells, FRET fluorescence, artefact control for TLR9-MyD88 binding inhibitor project, dose response (AID 588341).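 Also: cell based assay in CHO-K1 cells stably expressing beta-lactamase.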 The experiment is classed as cell-based.
A short description of experiment [1]: Intein inhibitors as potential Tuberculosis drugs, a cytotoxicity screen. [Related pubchem assays (depositor defined):AID2221, AID2223, AID434968, AID435010, AID449749, AID449750, AID489010]. The experiment is classed as functional.
In experiment [2] the target is T1, Orexin/Hypocretin receptor type 1 (Homo sapiens, UniProt O43613).
T1 sequence (O43613 whole entry): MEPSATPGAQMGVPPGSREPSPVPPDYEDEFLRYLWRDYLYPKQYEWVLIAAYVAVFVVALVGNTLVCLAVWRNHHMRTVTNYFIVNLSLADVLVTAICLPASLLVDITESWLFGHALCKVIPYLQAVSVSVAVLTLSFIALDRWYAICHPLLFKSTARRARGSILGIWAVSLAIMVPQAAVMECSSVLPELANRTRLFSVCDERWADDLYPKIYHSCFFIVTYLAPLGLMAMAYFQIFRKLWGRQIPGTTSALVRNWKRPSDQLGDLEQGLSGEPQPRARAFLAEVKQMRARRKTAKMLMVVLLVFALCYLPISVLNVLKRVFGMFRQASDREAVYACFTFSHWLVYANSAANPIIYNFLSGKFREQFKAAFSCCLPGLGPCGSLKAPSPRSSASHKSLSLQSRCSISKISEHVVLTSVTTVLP
In words: Homogeneous Time Resolved Fluorescence (HTRF)-based cell-based high throughput dose response assay for antagonists of the orexin 1 receptor (OX1R; HCRTR1). [Related pubchem assays (depositor defined):AID434989, AID435008, AID463079, AID485270, AID492963, AID492964, AID492965, AID493232, AID504717, AID504718]. The experiment is classed as functional.

Experiment [3] concerns the target T1, Orexin/Hypocretin receptor type 1. In words: Fluorescence-based cell-based high throughput dose response assay for antagonists of the orexin 1 receptor (OX1R; HCRTR1). [Related pubchem assays (depositor defined):AID434989, AID435008, AID463079, AID485270, AID492963, AID492964, AID492965, AID493232, AID504717, AID504718]. The experiment is classed as functional.

Experiment [4] deals with Intestinal-type alkaline phosphatase (Homo sapiens, UniProt P09923). In words: inhibition of human intestinal alkaline phosphatase – biochemical, dose response (AID 488876). The experiment is classed as functional.
Chain of Intestinal-type alkaline phosphatase (P09923 whole entry): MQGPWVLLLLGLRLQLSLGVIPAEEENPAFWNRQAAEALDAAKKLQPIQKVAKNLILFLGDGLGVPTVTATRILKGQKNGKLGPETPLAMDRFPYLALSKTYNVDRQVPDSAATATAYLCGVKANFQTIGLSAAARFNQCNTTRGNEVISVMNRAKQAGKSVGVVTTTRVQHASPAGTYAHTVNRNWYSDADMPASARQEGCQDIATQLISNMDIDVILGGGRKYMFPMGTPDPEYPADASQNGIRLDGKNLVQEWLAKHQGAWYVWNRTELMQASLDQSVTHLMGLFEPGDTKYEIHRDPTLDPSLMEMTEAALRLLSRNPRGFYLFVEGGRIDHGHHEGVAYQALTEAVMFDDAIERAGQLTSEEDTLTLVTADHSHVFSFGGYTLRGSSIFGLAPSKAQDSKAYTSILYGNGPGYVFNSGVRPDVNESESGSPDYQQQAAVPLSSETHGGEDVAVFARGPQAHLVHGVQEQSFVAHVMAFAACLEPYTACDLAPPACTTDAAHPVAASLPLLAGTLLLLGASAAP
The target of experiment [5] is Apoptotic protease-activating factor 1 (Homo sapiens, UniProt O14727). The experiment is classed as functional.
Chain of Apoptotic protease-activating factor 1 (O14727 whole entry): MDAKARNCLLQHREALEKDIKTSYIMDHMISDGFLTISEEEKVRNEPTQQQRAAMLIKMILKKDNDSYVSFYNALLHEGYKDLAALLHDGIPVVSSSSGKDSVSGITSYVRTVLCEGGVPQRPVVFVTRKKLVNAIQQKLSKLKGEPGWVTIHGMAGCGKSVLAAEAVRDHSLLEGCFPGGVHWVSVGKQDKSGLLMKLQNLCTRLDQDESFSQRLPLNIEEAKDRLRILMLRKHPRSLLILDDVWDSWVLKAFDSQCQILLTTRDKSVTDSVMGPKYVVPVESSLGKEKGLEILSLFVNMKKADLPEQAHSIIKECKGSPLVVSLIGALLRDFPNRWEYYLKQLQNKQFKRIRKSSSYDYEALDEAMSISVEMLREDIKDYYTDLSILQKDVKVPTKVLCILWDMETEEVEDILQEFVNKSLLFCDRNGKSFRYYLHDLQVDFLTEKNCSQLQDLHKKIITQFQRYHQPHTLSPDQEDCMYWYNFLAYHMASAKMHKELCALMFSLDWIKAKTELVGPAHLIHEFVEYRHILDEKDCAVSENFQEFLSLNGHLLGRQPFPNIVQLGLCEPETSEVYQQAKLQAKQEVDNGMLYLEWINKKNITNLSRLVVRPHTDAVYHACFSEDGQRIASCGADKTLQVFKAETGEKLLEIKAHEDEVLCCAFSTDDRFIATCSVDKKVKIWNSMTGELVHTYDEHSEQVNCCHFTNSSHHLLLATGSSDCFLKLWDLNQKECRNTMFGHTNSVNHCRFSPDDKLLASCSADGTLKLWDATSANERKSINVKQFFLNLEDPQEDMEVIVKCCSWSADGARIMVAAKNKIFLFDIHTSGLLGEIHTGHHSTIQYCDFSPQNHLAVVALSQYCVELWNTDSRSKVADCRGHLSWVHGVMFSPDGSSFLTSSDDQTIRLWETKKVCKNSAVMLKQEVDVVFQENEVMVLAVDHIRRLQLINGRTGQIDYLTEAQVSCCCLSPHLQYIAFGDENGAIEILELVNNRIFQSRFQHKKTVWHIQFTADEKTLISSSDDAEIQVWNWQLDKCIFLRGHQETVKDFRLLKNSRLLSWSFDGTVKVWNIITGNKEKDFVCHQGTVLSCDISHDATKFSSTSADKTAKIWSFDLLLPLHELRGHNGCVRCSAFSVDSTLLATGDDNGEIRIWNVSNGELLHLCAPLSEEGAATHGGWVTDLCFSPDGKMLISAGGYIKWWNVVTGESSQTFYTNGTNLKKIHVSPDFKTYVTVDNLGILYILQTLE
Experiment [6] addresses Mitogen-activated protein kinase kinase kinase kinase 4 (Homo sapiens, UniProt O95819). The experiment is classed as functional.
In experiment [7] the target is Glycogen synthase kinase-3 alpha (Homo sapiens, UniProt P49840). The experiment is classed as functional.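 Also: GSK3A result taken from a broad kinome-wide kinase panel.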
Chain of Glycogen synthase kinase-3 alpha (P49840 whole entry, the tested form may be a part): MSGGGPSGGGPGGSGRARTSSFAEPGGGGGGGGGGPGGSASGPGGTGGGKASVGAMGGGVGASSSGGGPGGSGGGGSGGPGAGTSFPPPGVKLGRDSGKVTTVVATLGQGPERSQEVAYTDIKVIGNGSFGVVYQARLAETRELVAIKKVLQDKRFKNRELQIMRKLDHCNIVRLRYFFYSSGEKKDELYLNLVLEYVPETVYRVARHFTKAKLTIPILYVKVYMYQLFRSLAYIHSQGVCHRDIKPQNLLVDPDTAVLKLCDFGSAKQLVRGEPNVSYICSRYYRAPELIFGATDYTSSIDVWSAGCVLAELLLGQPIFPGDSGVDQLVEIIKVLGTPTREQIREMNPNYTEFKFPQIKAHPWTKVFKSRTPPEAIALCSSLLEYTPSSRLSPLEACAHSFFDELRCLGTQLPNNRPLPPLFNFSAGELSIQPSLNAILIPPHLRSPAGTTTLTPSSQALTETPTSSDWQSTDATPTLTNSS
The nature of experiment [8]: off-target signal loss in HeLa-CEM21 co-culture – HeLa F-luc CTL cells, cherry-picked, counter-screen for HIV-1 Env fusion inhibitor project, dose response (AID 652040).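 Also: potency for signal decrease marking cytotoxic or nonspecific inhibition.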 The experiment is classed as functional, cell-based.
Experiment [9] can be described thus: mammalian cell viability loss – Alamar Blue, dry powder, cytotoxicity control for antifungal single agent project, dose response (AID 602188). The experiment is classed as functional, cell-based.
For experiment [10], the target named is T2, Serine/threonine-protein phosphatase (Candida dubliniensis (strain CD36 / CBS 7987 / NCPF 3949 / NRRLY-17841) (Yeast), UniProt B9W6M3).
T2 sequence (B9W6M3 whole entry): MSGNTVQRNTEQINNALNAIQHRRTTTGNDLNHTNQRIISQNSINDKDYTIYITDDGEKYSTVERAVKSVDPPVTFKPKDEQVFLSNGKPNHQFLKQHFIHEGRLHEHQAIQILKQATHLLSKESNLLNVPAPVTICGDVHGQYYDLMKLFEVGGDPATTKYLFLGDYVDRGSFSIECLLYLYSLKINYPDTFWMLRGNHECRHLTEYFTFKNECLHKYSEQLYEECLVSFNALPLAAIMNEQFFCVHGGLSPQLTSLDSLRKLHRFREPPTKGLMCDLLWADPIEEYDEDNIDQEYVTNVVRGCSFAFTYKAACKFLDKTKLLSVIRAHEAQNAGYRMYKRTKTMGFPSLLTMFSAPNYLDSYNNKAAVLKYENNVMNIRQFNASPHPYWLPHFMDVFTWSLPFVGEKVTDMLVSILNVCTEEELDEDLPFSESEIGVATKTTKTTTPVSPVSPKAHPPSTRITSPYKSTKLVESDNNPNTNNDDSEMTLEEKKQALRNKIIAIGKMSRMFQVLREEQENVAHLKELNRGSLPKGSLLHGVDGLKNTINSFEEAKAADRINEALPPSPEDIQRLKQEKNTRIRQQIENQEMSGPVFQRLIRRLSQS
In words: blockers of CaCl2-induced CDRE-lacZ signaling – S. cerevisiae, luminescence, secondary, dose response (AID 2388).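 Also: yeast reporter cells carrying a calcineurin-responsive lacZ construct stimulated with calcium chloride; luminescent beta-galactosidase reporter signal in whole cells rather than isolated phosphatase activity; potency for inhibition where a drop in reporter signal means calcineurin blockade.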 The experiment is classed as functional, cell-based.
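For CC50 in this document: cells exposed to compound for 72 hours before luminescence readout.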

Chain of Beta Lactamase (Q932Y6 whole entry): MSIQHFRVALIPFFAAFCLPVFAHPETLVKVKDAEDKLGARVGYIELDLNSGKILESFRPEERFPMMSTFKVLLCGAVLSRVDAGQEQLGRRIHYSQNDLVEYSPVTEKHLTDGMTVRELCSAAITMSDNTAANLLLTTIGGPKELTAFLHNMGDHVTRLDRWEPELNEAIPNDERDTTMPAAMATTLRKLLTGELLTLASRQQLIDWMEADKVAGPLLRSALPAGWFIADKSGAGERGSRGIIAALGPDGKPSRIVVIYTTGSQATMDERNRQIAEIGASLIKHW
Chain of Orexin receptor type 2 (O43614 whole entry): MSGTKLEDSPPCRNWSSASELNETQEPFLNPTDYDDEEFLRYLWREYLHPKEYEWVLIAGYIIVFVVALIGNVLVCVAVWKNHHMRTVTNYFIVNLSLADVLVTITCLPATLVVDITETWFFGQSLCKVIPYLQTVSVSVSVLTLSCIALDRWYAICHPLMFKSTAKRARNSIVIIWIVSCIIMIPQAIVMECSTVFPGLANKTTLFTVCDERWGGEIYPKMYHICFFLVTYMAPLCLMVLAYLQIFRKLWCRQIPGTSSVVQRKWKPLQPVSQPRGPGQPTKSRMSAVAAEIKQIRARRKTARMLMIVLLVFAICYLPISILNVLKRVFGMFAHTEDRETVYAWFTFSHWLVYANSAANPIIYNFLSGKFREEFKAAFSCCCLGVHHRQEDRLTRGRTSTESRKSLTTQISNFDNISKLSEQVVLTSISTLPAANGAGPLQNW
Chain of Mitogen-activated protein kinase kinase kinase kinase 4 (O95819 whole entry): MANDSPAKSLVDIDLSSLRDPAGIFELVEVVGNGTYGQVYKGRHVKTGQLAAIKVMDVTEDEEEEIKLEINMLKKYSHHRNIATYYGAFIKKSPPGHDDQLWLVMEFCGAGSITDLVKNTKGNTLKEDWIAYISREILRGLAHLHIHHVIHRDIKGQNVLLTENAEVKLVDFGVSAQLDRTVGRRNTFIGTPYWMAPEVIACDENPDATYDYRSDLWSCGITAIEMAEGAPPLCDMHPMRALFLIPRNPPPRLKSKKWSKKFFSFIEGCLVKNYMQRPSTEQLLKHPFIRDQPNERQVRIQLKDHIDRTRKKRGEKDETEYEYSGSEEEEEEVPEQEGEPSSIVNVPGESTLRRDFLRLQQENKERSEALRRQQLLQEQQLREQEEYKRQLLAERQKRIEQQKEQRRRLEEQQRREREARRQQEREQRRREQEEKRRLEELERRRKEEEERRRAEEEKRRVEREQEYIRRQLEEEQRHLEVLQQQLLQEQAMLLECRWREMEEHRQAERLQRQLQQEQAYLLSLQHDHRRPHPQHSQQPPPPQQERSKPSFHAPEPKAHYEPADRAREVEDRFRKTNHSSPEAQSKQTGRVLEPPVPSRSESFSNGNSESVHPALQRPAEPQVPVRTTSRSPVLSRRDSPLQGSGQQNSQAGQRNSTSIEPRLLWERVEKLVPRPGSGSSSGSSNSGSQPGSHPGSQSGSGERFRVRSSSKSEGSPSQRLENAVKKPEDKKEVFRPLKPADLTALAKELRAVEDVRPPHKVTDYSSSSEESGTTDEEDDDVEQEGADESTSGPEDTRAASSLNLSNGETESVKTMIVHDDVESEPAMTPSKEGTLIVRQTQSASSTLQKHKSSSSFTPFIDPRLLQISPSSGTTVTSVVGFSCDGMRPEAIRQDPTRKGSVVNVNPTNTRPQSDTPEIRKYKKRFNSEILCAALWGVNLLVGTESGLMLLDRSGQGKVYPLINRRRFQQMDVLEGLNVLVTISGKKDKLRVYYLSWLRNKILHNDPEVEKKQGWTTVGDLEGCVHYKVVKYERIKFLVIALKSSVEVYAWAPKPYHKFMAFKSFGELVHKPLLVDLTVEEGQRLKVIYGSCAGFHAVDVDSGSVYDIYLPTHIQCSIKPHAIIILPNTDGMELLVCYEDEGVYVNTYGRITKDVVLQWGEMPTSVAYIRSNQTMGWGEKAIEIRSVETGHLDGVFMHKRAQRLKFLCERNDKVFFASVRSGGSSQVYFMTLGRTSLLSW

As to `Cc1ccc(C(=O)OCn2ncc(Cl)c(Cl)c2=O)cc1`, the IC50 was > 50 µM (inactive) at Orexin receptor type 2, 48.7 µM (inactive) at Beta Lactamase, 17.4 µM (inactive) in [2] and 6.12 µM (active) in experiment [3]. For the same compound, the 50% cytotoxic concentration (CC50) in experiment [1] is 2.85 µM (active).

On to `O=C(O)CC(C(=O)O)N1C(=O)/C(=C/C=C/c2ccco2)SC1=S` (configuration not stated), for which the values for the IC50 in [4] and in experiment [5] were > 100 µM (inactive) and 36.6 µM (active), respectively.

On to `O=C(Nc1cccc(C2Nc3ccc4ccccc4c3C3C=CCC32)c1)c1ccc(F)cc1` (configuration not stated), for which the Ki in [6] is > 5.01 µM (inactive).

Regarding `Cc1ccc(-c2cc(-c3cc(Br)ccc3O)[nH]c(=O)c2C#N)s1`, in [7], the inhibitory constant (Ki) was 1.58 µM (active).

Turning to `CCCC(=O)NC(c1cccs1)c1cc(Cl)c2cccnc2c1O` (configuration not stated), the results for the concentration at half-maximal activity (AC50) in experiment [8] and in experiment [9] were 6.09 µM (active) and 1.06 µM (active), respectively. Further, the EC50 in experiment [10] was > 180 µM (inactive).
